In patent publication US20240226107A1, “UBIQUITIN-SPECIFIC PROTEASE 1 (USP1) INHIBITOR” (SIMCERE ZAIMING PHARMACEUTICAL CO., LTD., priority 2021, published 2024):
pIC50: −log10 of the molar value. ≈ marks a conversion by molar mass, not a printed value.

Experiments:
[1] = target: USP1 (Recombinant Human His6-USP1/His6-UAF1 Complex Protein) (Homo sapiens (Human), UniProt O94782); experiment: In vitro activity assay for USP1 (Ub-CHOP2-Reporter deubiquitination assay); type: biochemical; settings: 0.5 h incubation at room temperature, read-out: In vitro inhibitory activity of USP1 IC50
Method in brief: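 His6-USP1/His6-UAF1 complex was mixed with compound in 20 mM Tris-HCl pH 8.0, 2 mM CaCl2, 2 mM β-mercaptoethanol and 0.05% CHAPS. Ub-CHOP2 reporter system plus substrate was added, then incubated 0.5 h at room temperature. IC50 came from a four-parameter logistic fit.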

[2] = Metabolic stability in vitro in human hepatocytes; type: in vitro ADME; settings: read-out: Intrinsic clearance
Description: The concentration of each compound in the reaction system was measured by LC/MS/MS to calculate the intrinsic clearance of the compounds to be tested, and evaluate the metabolic stability in vitro in human hepatocytes.
To the incubation plate, 198 μL of 0.5×10^6 cells/mL human hepatocyte mixture and 2.0 μL of 100 μM compound to be tested or positive control were added to initiate reaction. Incubation was performed at 900 rpm at 37° C. […] Then the mixture was vortex-mixed for 5 min. […] Then 100 μL of supernatant of each compound was transferred to a 96-well sample plate, and 100 μL of purified water was added to dilute the sample.
The resulting samples were quantified by ion chromatograms. The residual rate was calculated from peak areas of the compounds to be tested or the positive control. The slope k was determined using Microsoft Excel by linear regression of natural logarithm of the residual rate to the incubation time. The intrinsic clearance (in vitro CLint, μL/min/10^6 cells) was calculated from the slope value according to the following equation: […]

[3] = Metabolic stability in vitro in rat hepatocytes; type: in vitro ADME; settings: read-out: Intrinsic clearance
Description: The concentration of each compound in the reaction system was measured by LC/MS/MS to calculate the intrinsic clearance of the compounds to be tested, and evaluate the metabolic stability in vitro in rat hepatocytes.
To the incubation plate, 198 μL of 0.5×10^6 cells/mL rat hepatocyte mixture and 2.0 μL of 100 μM compound to be tested or positive control were added to initiate reaction. Incubation was performed at 900 rpm at 37° C. […] Then the mixture was vortex-mixed for 5 min. […] Then 100 μL of supernatant of each compound was transferred to a 96-well sample plate, and 100 μL of purified water was added to dilute the sample. The resulting samples were quantified by ion chromatograms. The residual rate was calculated from peak areas of the compounds to be tested or the positive control. The slope k was determined using Microsoft Excel by linear regression of natural logarithm of the residual rate to the incubation time. The intrinsic clearance (in vitro CLint, μL/min/10^6 cells) was calculated from the slope value according to the following equation: […]

PXR = PXR (Homo sapiens (Human), UniProt O75469); experiment: Potential for PXR activation in DPX2 cells; type: cell-based; settings: versus 20 μM rifampicin
Description: DMSO solutions of the compounds to be tested and the control compound rifampicin solution were prepared, and diluted with Puracyp dosing medium (Puracyp, Cat. No: D-500-100) at 37° C. to respective test concentrations. The final concentrations of the compounds to be tested were 30 μM, 10 μM, and 1 μM, respectively, and the final concentration of rifampicin was 20 μM. The final concentration of DMSO in the test solution was 0.1%. In addition, 0.1% DMSO solution prepared with Puracyp dosing medium was used as a control.
DPX2 cells were suspended in Puracyp Culture medium (Puracyp, Cat No.: C-500-100) at a cell density of 4.5×10^5 cell/mL. Then, the suspension was placed on a 96-well culture plate at 100 μL/well for incubation at 37° C. for 24 h. The medium in appropriate wells of the 96-well culture plate was replaced (three times per well) by 100 μL of solution of the compounds to be tested and a control compound solution. After replacement, the plate was incubated at 37° C. for 24 h. The medium was then replaced (three times per well) by a newly prepared test solution of the compounds to be tested and a rifampicin test solution, and the plate was incubated at 37° C. for 24 h.
The medium in the 96-well culture plate was pipetted and washed twice with PBS. To each well, 50 μL of reagent diluted as required by CellTiter-Fluor™ Cell Viability Assay Kit (Promega, Cat. No.: G6082) was added, and incubated at 37° C. for 0.5 h. The 96-well plate was cooled to room temperature, and the fluorescence value of each well at 505 nm was measured in a fluorescence mode with a microplate reader at an excitation wavelength of 400 nm. Then, 50 μL of reagent prepared as required by One-Glo Luciferase Assay System (Promega, Cat. No.: E6120) was added to each well, and the mixture was incubated at room temperature for 5 min. The luminescence value of each well was read by using a lumen meter.
Normalized luciferase activity was determined by RLU/RFU, and the RLU and RFU of the samples were mean values of duplicate wells, respectively.
[formula] • Fold of activation: fold of activation of normalized luciferase; • RLUtest: measured luminescence value of test wells at each test dose of test compounds; • RLUvehicle: measured luminescence value of test wells when tested with the control DMSO solution; • RFUtest: measured fluorescence value of test wells at each test dose of test compounds; • RFUvehicle: measured fluorescence value of test wells when tested with the control DMSO solution.
The percentage of positive control was calculated as follows:
% Positive control=(fold activationtest compound−1)/(fold activationpositive control compound−1)×100% • % Positive control: percentage of PXR activation compared with 20 μM rifampicin activation at each test dose of test compounds; • Fold activationtest compound: fold of activation of normalized luciferase at each test dose of test compounds; • Fold activationpositive control compound: fold of activation of normalized luciferase of test compounds under 20 μM rifampicin.

[4] = Solubility (PBS pH 7.4) of compounds from DMSO solution; type: physicochemical; settings: aqueous buffer, kinetic from dmso stock, 10 mM DMSO solution into PBS pH 7.4, 25° C., read-out: Calculated solubility
Description: The solubility (PBS pH 7.4) of a compound to be tested was determined by LC/MS/MS. 6 μL of 10 mM DMSO solution of the compound to be tested was mixed with 194 μL of DMSO to prepare 300 μM compound solution. In 490 μL of water and acetonitrile (1:1) containing an internal standard, 5 μL of the solution and 5 μL of PBS pH 7.4 solution were mixed to prepare 3 μM standard concentration solution of the sample to be tested. The dilution factor of the standard solution can be adjusted according to the strength of response signals in LC/MS.
To 485 μL of PBS pH 7.4 solution, 15 μL of 10 mM DMSO solution of the compound to be tested was added. […] After shaking, the stir bar was removed, and the sample was transferred to a filter plate and filtered using a vacuum manifold. In 490 μL of water and acetonitrile (1:1) containing an internal standard, 5 μL of filtrate and 5 μL of PBS pH 7.4 solution were mixed to prepare a solution to be tested. The dilution factor can be adjusted according to the solubility value and the strength of response signals in LC/MS.
The resulting samples were determined by LC/MS/MS. The sample solubility was calculated from peak areas of the solution of the compound to be tested and the standard concentration solution, according to the following equation:
[formula] • [Sample] is the solubility of the sample to be tested; • Area ratiosample is the ratio of the peak area of sample in the sample to be tested to the peak area of the internal standard; • INJ VOL STD is the injection volume of the standard concentration solution; • DFsample is the dilution factor of the solution of the sample to be tested; • [STD] is the concentration of the standard concentration solution; • INJ VOLsample is the injection volume of the solution of the sample to be tested; and • Area ratio STD is the ratio of the peak area of sample in the standard concentration solution to the peak area of the internal standard.

[5] = In vivo pharmacokinetics in SD rats; settings: male, rat, plasma
Description: Using SD rats as test animals, drug concentrations in plasma of the rats at different times after intravenous injection and intragastric administration of the compounds provided in the present application were determined by LC/MS/MS. In vivo pharmacokinetic behaviors of the compounds provided in the present application in rats were investigated to evaluate pharmacokinetic characteristics of the compounds.
There were three healthy 6-8-week-old male SD rats in each group.
Intravenous administration: A certain amount of drug was weighed, and then 10 vol % N,N-dimethylacetamide, 33 vol % triethylene glycol, and 57 vol % physiological saline were added to prepare 1 mg/mL colorless clear and transparent liquid;
Intragastric administration: A certain amount of drug was weighed, and then 0.5 wt % hydroxypropyl methylcellulose, 0.1 vol % tween 80, and 99.6 vol % physiological saline were added to prepare 1 mg/mL white suspension.
After fasting overnight, the SD rats were dosed intravenously or intragastrically.
The compounds provided in the present application were administered intravenously to the rats, then 0.2 mL of blood was collected from jugular veins respectively at 0.083, 0.25, 0.5, 1, 2, 4, 8, and 24 h after the administration, and placed in a test tube containing EDTA-K2. The test tube was then centrifuged at 4000 rpm at 4° C. for 5 min to separate plasma, and the plasma was stored at −75° C. Alternatively, the compounds provided in the present application were administered intragastrically to the rats, then 0.2 mL of blood was collected from jugular veins respectively at 0.25, 0.5, 1, 2, 4, 8, and 24 h after the administration, and placed in a test tube containing EDTA-K2. The test tube was then centrifuged at 3500 rpm at 4° C. for 10 min to separate plasma, and the plasma was stored at −75° C.
The content of the compounds to be tested in rat plasma after intravenous administration or intragastric administration at different concentrations was determined: 30 μL of rat plasma at each time after administration was taken, 200 μL (50 ng/mL) of solution of internal standard dexamethasone in acetonitrile was added, then the resulting mixture was vortex-mixed for 30 s, and centrifuged at 4700 rpm at 4° C. for 15 min, the supernatant of plasma samples was diluted three times with water, and 2.0 μL of diluted solution was taken for LC-MS/MS.

[6] = Caco-2 permeability assay; type: in vitro ADME; settings: human, pH 7.4, Caco-2, 5 μM, 2 h
Description: The apparent permeability coefficient (Papp) of the analytical drug was determined by liquid chromatography-mass spectrometry (LC-MS/MS) through a Caco-2 cell model.
In this test example, Caco-2 cells were purchased from American Type Culture Collection (ATCC); 4-hydroxyethyl piperazine ethane sulfonic acid (HEPES) was purchased from Beijing Solarbio Science & Technology Co., Ltd.; Hanks' balanced salt solution (HBSS) and non-essential amino acids (NEAA) were purchased from ThermoFisher Scientific; penicillin, streptomycin, and trypsin/EDTA were purchased from Solarbio; fetal bovine serum (FBS) and DMEM medium were purchased from Corning; HTS-96-well Transwell plates and other sterile consumables were purchased from Corning; Millicell resistance measuring system was purchased from Millipore; Cellometer®K2 was purchased from Nexcelom Bioscience; Infinite 200 PRO microplate reader was purchased from Tecan; and MTS2/4 orbital shaker was purchased from IKA Labortechnik.
Caco-2 cells were cultured in a culture flask. […] Cells at a confluency of 70-90% can be used to inoculate the Transwell. Prior to cell inoculation, 50 μL of cell culture medium was added to each well of the upper Transwell chamber and 25 mL of cell culture medium was added to the lower plate. The plate was incubated in an incubator (37° C., 5% CO2) for 1 h, and then inoculated with cells. After cell digestion, the cell suspension was pipetted and transferred to a round bottom centrifuge tube for centrifugation at 120 g for 5 min. […] The medium was changed as follows: transwell chambers were separated from the receiver plate, medium in the receiver plate was discarded, then medium in the Transwell chambers was discarded, and finally, 75 μL of fresh medium was added to each chamber, and 25 mL of fresh medium was added to the receiver plate.
After approximately 14 days of culture, the Caco-2 cells reached the confluency and completed differentiation. In this case, the cells can be applied to permeability assay. The monolayer resistance was measured with a resistance meter (Millipore, USA) and the resistance per well was recorded. After the measurement, the Transwell plate was put back to the incubator. Calculation of resistance: measured resistance value (ohms)×membrane area (cm^2)=TEER value (ohm·cm^2); if TEER value <230 ohms·cm^2, the well can not be used for permeability assay.
In 900 mL of purified water, 2.38 g HEPES and 0.35 g sodium bicarbonate were dissolved, then 100 mL of 10×HBSS was added and stirred well, pH was adjusted to 7.4, and finally, the resulting solution was filtered to obtain 1 L of transport buffer (HBSS, 10 mM HEPES, pH 7.4).
A DMSO stock solution of 1 mM of compound to be tested was diluted with the transport buffer to obtain 5 μM test solution. The control compound digoxin or minoxidil was diluted with DMSO to 2 mM, and diluted with the transport buffer described above to 10 μM to obtain a control compound test solution. In addition, DMSO was also diluted with the transport buffer described above to a receiving end solution containing 0.5% DMSO.
The Transwell plate was removed from the incubator. Monolayer cell membranes were rinsed twice with the transport buffer (10 mM HEPES, pH 7.4) and incubated at 37° C. for 30 min.
The transport rate of the compound from the apical side to the basolateral side was determined. […]
The transport rate of the compound from the basolateral side to the apical side was determined.
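For GI50 in this document: MDA-MB-436 proliferation over 7 days with compound, viability read as ATP luminescence (CellTiter-Glo), inhibition relative to DMSO-only wells, day 0 signal as background, GI50 from four-parameter fit.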

USP1 (Recombinant Human His6-USP1/His6-UAF1 Complex Protein), sequence (O94782 whole entry): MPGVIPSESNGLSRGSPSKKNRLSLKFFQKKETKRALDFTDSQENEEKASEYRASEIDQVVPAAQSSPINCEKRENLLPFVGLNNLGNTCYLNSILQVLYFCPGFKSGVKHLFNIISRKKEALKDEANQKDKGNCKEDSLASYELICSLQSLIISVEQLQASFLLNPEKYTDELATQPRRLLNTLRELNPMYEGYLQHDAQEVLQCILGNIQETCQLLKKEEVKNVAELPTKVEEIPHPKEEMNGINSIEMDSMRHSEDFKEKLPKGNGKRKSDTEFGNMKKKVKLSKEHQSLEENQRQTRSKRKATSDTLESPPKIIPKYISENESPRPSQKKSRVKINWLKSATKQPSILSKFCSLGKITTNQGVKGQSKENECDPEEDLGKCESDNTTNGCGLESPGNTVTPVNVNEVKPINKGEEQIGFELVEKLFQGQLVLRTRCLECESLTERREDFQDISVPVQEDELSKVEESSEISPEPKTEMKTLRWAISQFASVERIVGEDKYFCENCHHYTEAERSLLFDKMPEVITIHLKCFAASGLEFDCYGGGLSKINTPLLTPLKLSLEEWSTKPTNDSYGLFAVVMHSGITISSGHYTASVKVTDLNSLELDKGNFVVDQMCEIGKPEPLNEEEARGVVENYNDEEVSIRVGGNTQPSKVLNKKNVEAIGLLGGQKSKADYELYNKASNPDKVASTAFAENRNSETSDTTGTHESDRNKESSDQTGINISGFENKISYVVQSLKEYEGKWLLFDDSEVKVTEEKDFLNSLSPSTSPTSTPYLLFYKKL
USP1 (Recombinant Human His6-USP1/His6-UAF1 Complex Protein), sequence (Q8TAF3 whole entry partner): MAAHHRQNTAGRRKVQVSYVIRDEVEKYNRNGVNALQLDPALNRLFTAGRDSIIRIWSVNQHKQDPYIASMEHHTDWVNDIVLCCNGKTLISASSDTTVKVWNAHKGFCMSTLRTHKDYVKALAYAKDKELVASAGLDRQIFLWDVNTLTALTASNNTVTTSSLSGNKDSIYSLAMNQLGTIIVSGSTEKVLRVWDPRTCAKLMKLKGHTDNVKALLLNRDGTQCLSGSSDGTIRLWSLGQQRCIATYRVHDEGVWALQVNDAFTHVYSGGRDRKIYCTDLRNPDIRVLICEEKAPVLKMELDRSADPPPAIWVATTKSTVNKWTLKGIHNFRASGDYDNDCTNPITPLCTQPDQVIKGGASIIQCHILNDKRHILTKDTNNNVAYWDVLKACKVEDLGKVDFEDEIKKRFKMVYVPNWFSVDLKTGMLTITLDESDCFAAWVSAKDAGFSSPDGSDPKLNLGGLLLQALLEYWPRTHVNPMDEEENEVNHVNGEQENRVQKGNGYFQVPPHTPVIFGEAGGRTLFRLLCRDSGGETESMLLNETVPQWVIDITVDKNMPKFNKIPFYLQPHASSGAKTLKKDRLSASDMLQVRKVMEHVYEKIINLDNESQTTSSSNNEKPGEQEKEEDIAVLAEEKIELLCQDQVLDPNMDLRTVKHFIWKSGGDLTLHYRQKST
PXR, sequence (O75469 whole entry): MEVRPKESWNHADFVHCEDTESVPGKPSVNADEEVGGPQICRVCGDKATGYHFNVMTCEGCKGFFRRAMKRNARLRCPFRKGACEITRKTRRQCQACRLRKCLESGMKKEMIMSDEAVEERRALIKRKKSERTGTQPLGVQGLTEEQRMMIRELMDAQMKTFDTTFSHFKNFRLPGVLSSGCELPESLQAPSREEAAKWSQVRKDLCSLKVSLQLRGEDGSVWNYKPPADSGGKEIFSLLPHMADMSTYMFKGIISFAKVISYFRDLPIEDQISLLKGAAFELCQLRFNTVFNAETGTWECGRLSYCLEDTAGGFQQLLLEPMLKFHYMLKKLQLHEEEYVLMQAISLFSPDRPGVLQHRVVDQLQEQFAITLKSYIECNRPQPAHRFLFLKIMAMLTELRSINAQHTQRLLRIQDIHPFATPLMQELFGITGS

Compound: COc1ncnc(C2CC2)c1-c1ncc2c(n1)N(Cc1ccc(-c3nc(C(F)(F)F)cn3C)cc1)C(=O)C(C)(C)O2 [Compound 22, 2-(4-cyclopropyl-6-methoxypyrimidin-5-yl)-6,6-dimethyl-8-(4-(1-methyl-4-(trifluoromethyl)-1H-imidazol-2-yl)benzyl)-6H-pyrimido[5,4-b][1,4]oxazin-7(8H)-one]
- pIC50 [1]: 7.84
- GI50 (MDA-MB-436 cells): 0.0199 µM
- hepatocyte CLint at 1 μM [2]: 4.85 µL/min/1e6 cells
- hepatocyte CLint at 1 μM [3]: 6.4 µL/min/1e6 cells

Compound: COc1ncnc(C2CC2)c1-c1ncc2c(n1)N(Cc1ccc(-n3nc(C(F)(F)F)cc3C)cc1)CC(=O)N2C [Compound 43, 2-(4-cyclopropyl-6-methoxypyrimidin-5-yl)-5-methyl-8-(4-(5-methyl-3-(trifluoromethyl)-1H-pyrazol-1-yl)benzyl)-7,8-dihydropteridin-6(5H)-one]
- PXR activation (% Positive control) (PXR; 10 μM): 3.2 % Positive control
- pIC50 [1]: 7.65
- GI50 (MDA-MB-436 cells): 0.0326 µM

Compound: COc1ncnc(C2CC2)c1-c1ncc2c(n1)N(Cc1ccc3c(c1)CCCn1cc(C(F)(F)F)nc1-3)CC(=O)N2C [Compound 45, 2-(4-cyclopropyl-6-methoxypyrimidin-5-yl)-5-methyl-8-((2-(trifluoromethyl)-6,7-dihydro-5H-benzo[c]imidazo[1,2-a]azepin-9-yl)methyl)-7,8-dihydropteridin-6(5H)-one]
- solubility at 2 h [4]: 88 µM (≈ 50.7 µg/mL)
- pIC50 [1]: 7.70
- GI50 (MDA-MB-436 cells): 0.0532 µM
- hepatocyte CLint at 1 μM [2]: 4.26 µL/min/1e6 cells

Compound: COc1ncnc(C2CC2)c1-c1ncc2c(n1)N(Cc1ccc(-c3nc(C(F)(F)F)cn3C)cc1)C(=O)OC2(C)C [Compound 50, 7-(4-cyclopropyl-6-methoxypyrimidin-5-yl)-4,4-dimethyl-1-(4-(1-methyl-4-(trifluoromethyl)-1H-imidazol-2-yl)benzyl)-1,4-dihydro-2H-pyrimido[4,5-d][1,3]oxazin-2-one]
- Vd ([5]; IV 2 mg/kg, read-out: Apparent volume of distribution Vss_obs): 4.1 L/kg
- clearance ([5]; IV 2 mg/kg, read-out: Clearance CL_obs): 11.4 mL/min/kg
- half-life ([5]; IV 2 mg/kg, read-out: Half-life period T1/2 (converted)): 6 h
- bioavailability ([5]; PO 5 mg/kg versus IV, read-out: Bioavailability F): 47.2%
- Cmax ([5]; PO 5 mg/kg, read-out: Maximum plasma concentration Cmax): 235 ng/mL
- PXR activation (% Positive control) (PXR; 30 μM): 32.8 % Positive control
- hepatocyte CLint at 1 μM [2]: < 1 µL/min/1e6 cells
- hepatocyte CLint at 1 μM [3]: 4 µL/min/1e6 cells
- Papp A→B at 2 h, 5 μM ([6]; apical to basolateral): 7.5 ×10⁻⁶ cm/s
- Papp B→A at 2 h, 5 μM ([6]; basolateral to apical): 17.3 ×10⁻⁶ cm/s

Compound: COc1ncnc(C2CC2)c1-c1ncc2c(n1)N(Cc1ccc(-c3nc(C(F)(F)F)cn3C)cc1)C(=O)OC21CC1 [Compound 52, 7′-(4-cyclopropyl-6-methoxypyrimidin-5-yl)-1′-(4-(1-methyl-4-(trifluoromethyl)-1H-imidazol-2-yl)benzyl)spiro[cyclopropane-1,4′-pyrimido[4,5-d][1,3]oxazine]-2′(1′H)-one]
- PXR activation (% Positive control) (PXR; 10 μM): 20.9 % Positive control
- pIC50 [1]: 7.63
- GI50 (MDA-MB-436 cells): 0.0596 µM
